Source: PubChem BioAssay AID2060908 (Molecular Pharmacology Branch, DTP, NCI, 2025)

Tested on: 186277-243-T-J2-PDC complex spheroids, viability
Experiment: Anticancer human tumor 186277-243-T-J2-PDC patient-derived colon adenocarcinoma cell line growth inhibition [RAS]
Conditions: for IC50: curve of first compound; for viability, T/C: stronger effect = lower value
Procedure, shortened: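 Tumour cells grown as complex spheroids with HUVEC endothelial cells and mesenchymal stem cells, treated with RAS pathway inhibitor combinations. Each agent spans half-log steps from near clinical Cmax, or 10 microM where Cmax is unknown.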

[1] = second compound 0.00316 µM, first compound 0.0316 µM
[2] = second compound 0.00316 µM, first compound 0.1 µM
[3] = second compound 0.00316 µM, first compound 0.316 µM
[4] = second compound 0.00316 µM, first compound 1 µM
[5] = second compound 0.00316 µM, first compound 3.16 µM
[6] = second compound 0.00316 µM, first compound 10 µM
[7] = second compound 0.01 µM, first compound 0.0316 µM
[8] = second compound 0.01 µM, first compound 0.1 µM
[9] = second compound 0.01 µM, first compound 0.316 µM
[10] = second compound 0.01 µM, first compound 1 µM
[11] = second compound 0.01 µM, first compound 3.16 µM
[12] = second compound 0.01 µM, first compound 10 µM
[13] = second compound 0.0316 µM, first compound 0.0316 µM
[14] = second compound 0.0316 µM, first compound 0.1 µM
[15] = second compound 0.0316 µM, first compound 0.316 µM
[16] = second compound 0.0316 µM, first compound 1 µM
[17] = second compound 0.0316 µM, first compound 3.16 µM
[18] = second compound 0.0316 µM, first compound 10 µM
[19] = second compound 0.1 µM, first compound 0.0316 µM
[20] = second compound 0.1 µM, first compound 0.1 µM
[21] = second compound 0.1 µM, first compound 0.316 µM
[22] = second compound 0.1 µM, first compound 1 µM
[23] = second compound 0.1 µM, first compound 3.16 µM
[24] = second compound 0.1 µM, first compound 10 µM
[25] = second compound 0.316 µM, first compound 0.0316 µM
[26] = second compound 0.316 µM, first compound 0.1 µM
[27] = second compound 0.316 µM, first compound 0.316 µM
[28] = second compound 0.316 µM, first compound 1 µM
[29] = second compound 0.316 µM, first compound 3.16 µM
[30] = second compound 0.316 µM, first compound 10 µM
[31] = second compound 1 µM, first compound 0.0316 µM
[32] = second compound 1 µM, first compound 0.1 µM
[33] = second compound 1 µM, first compound 0.316 µM
[34] = second compound 1 µM, first compound 1 µM
[35] = second compound 1 µM, first compound 3.16 µM
[36] = second compound 1 µM, first compound 10 µM
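Further: spheroids exposed to compounds for 7 days before viability read.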

Cc1nc(N2CCC3(CC2)COC(C)C3N)c(CO)nc1Sc1ccnc(N)c1Cl (stereo unspecified) + C=CC(=O)N1CCN(c2nc(OCC3CCCN3C)nc3c(F)c(-c4nc(N)cc(C)c4C(F)(F)F)c(Cl)cc23)C(C)C1
IC50 (second compound 0.00316 µM): > 10 µM
IC50 (second compound 0.01 µM): > 10 µM
IC50 (second compound 0.0316 µM): > 10 µM
IC50 (second compound 0.1 µM): > 10 µM
IC50 (second compound 0.316 µM): > 10 µM
IC50 (second compound 1 µM): > 10 µM
viability, T/C [1]: 102%
viability, T/C [2]: 102%
viability, T/C [3]: 127%
viability, T/C [4]: 108%
viability, T/C [5]: 116%
viability, T/C [6]: 78.9%
viability, T/C [7]: 99.8%
viability, T/C [8]: 101%
viability, T/C [9]: 94.4%
viability, T/C [10]: 85.2%
viability, T/C [11]: 89.2%
viability, T/C [12]: 78.7%
viability, T/C [13]: 86.8%
viability, T/C [14]: 103%
viability, T/C [15]: 113%
viability, T/C [16]: 117%
viability, T/C [17]: 83.2%
viability, T/C [18]: 80.4%
viability, T/C [19]: 94%
viability, T/C [20]: 86.6%
viability, T/C [21]: 91.6%
viability, T/C [22]: 104%
viability, T/C [23]: 87.7%
viability, T/C [24]: 87.9%
viability, T/C [25]: 90.6%
viability, T/C [26]: 93.3%
viability, T/C [27]: 104%
viability, T/C [28]: 115%
viability, T/C [29]: 95.7%
viability, T/C [30]: 75.8%
viability, T/C [31]: 103%
viability, T/C [32]: 100%
viability, T/C [33]: 91.8%
viability, T/C [34]: 99.1%
viability, T/C [35]: 92.6%
viability, T/C [36]: 83.8%

NC1c2ccccc2OC12CCN(c1cnc3c(N4CCCc5ncccc54)n[nH]c3n1)CC2 (stereo unspecified) + C=CC(=O)N1CCN(c2nc(OCC3CCCN3C)nc3c(F)c(-c4nc(N)cc(C)c4C(F)(F)F)c(Cl)cc23)C(C)C1
IC50 (second compound 0.00316 µM): > 10 µM
IC50 (second compound 0.01 µM): > 10 µM
IC50 (second compound 0.0316 µM): 9.07 µM
IC50 (second compound 0.1 µM): 9.17 µM
IC50 (second compound 0.316 µM): > 10 µM
IC50 (second compound 1 µM): > 10 µM
viability, T/C [1]: 83.8%
viability, T/C [2]: 94.6%
viability, T/C [3]: 101%
viability, T/C [4]: 75%
viability, T/C [5]: 64.4%
viability, T/C [6]: 50.3%
viability, T/C [7]: 100%
viability, T/C [8]: 109%
viability, T/C [9]: 100%
viability, T/C [10]: 67.9%
viability, T/C [11]: 72.6%
viability, T/C [12]: 57.6%
viability, T/C [13]: 95.5%
viability, T/C [14]: 108%
viability, T/C [15]: 89.6%
viability, T/C [16]: 79.4%
viability, T/C [17]: 82.1%
viability, T/C [18]: 45.8%
viability, T/C [19]: 85%
viability, T/C [20]: 96.7%
viability, T/C [21]: 77.4%
viability, T/C [22]: 80.7%
viability, T/C [23]: 84%
viability, T/C [24]: 47.3%
viability, T/C [25]: 108%
viability, T/C [26]: 110%
viability, T/C [27]: 88.7%
viability, T/C [28]: 85.3%
viability, T/C [29]: 84.3%
viability, T/C [30]: 52.4%
viability, T/C [31]: 112%
viability, T/C [32]: 92.5%
viability, T/C [33]: 79.6%
viability, T/C [34]: 88.7%
viability, T/C [35]: 78.5%
viability, T/C [36]: 45%

Nc1ccn(C2OC(CO)C(O)C2(F)F)c(=O)n1 (stereo unspecified) + C=CC(=O)N1CCN(c2nc(OCC3CCCN3C)nc3c(F)c(-c4nc(N)cc(C)c4C(F)(F)F)c(Cl)cc23)C(C)C1
IC50 (second compound 0.00316 µM): 0.00506 µM
IC50 (second compound 0.01 µM): 0.00502 µM
IC50 (second compound 0.0316 µM): 0.00455 µM
IC50 (second compound 0.1 µM): 0.00441 µM
IC50 (second compound 0.316 µM): 0.00445 µM
IC50 (second compound 1 µM): < 0.00316 µM
viability, T/C (second compound 0.00316 µM, first compound 0.00316 µM): 73.3%
viability, T/C (second compound 0.00316 µM, first compound 0.01 µM): 16.4%
viability, T/C [1]: 12.9%
viability, T/C [2]: 10.3%
viability, T/C [3]: 11.1%
viability, T/C [4]: 11.5%
viability, T/C (second compound 0.01 µM, first compound 0.00316 µM): 73.9%
viability, T/C (second compound 0.01 µM, first compound 0.01 µM): 14.4%
viability, T/C [7]: 10.9%
viability, T/C [8]: 10.2%
viability, T/C [9]: 9.07%
viability, T/C [10]: 11%
viability, T/C (second compound 0.0316 µM, first compound 0.00316 µM): 65.2%
viability, T/C (second compound 0.0316 µM, first compound 0.01 µM): 17.3%
viability, T/C [13]: 13.5%
viability, T/C [14]: 10.2%
viability, T/C [15]: 10.7%
viability, T/C [16]: 12.2%
viability, T/C (second compound 0.1 µM, first compound 0.00316 µM): 64.1%
viability, T/C (second compound 0.1 µM, first compound 0.01 µM): 15.2%
viability, T/C [19]: 11.7%
viability, T/C [20]: 11.3%
viability, T/C [21]: 10.1%
viability, T/C [22]: 11.8%
viability, T/C (second compound 0.316 µM, first compound 0.00316 µM): 64.3%
viability, T/C (second compound 0.316 µM, first compound 0.01 µM): 16%
viability, T/C [25]: 13.1%
viability, T/C [26]: 11.8%
viability, T/C [27]: 11.8%
viability, T/C [28]: 12.9%
viability, T/C (second compound 1 µM, first compound 0.00316 µM): 45.3%
viability, T/C (second compound 1 µM, first compound 0.01 µM): 18.9%
viability, T/C [31]: 17.2%
viability, T/C [32]: 14.1%
viability, T/C [33]: 13.5%
viability, T/C [34]: 14.8%
